# Measurements taken from patent US20160291027A1, “METHODS FOR […] ABILITY OF A Z[…] COMPOUND TO TREAT CANCER” (Eisai R&D Management Co., Ltd., priority 2007, published 2016).
# Test system: IL-8 secretion by LOX human melanoma cells
# Experiment: IL-8 secretion by LOX melanoma cells (ELISA)
# Format: cell-based
# Conditions: 24 hours
# Protocol: Compound 106 (5.0 mg) was weighed and dissolved in 100% anhydrous DMSO (dimethyl sulfoxide, Sigma-Aldrich®, St. Louis, Mo.) to produce a 10 mmol/L stock solution of 3.89 mg/mL. Aliquots of the 10 mmol/L stock solution were stored at −80° C. Then, on each day of an experiment, an aliquot of the stock solution was thawed and diluted 1:10 by adding RPMI-1640 culture medium to obtain a 1 mmol/L solution. Four serial 1:10 dilutions were made from 1 mmol/L working solution by adding 10% DMSO in RPMI-1640 culture medium to obtain 4 additional working solutions. Each of these working stock solutions was further diluted with culture media to obtain diluted working solutions ranging from 1 nmol/L to 10,000 nmol/L. Five mL of each of these diluted working solutions was added to each dish.
# LOX human melanoma cells were originally obtained from the DCTD Tumor Repository (Frederick, Md.). The cells were grown in monolayer cultures in RPMI-1640 growth media containing 10% fetal bovine serum (FBS) at 37° C. in a 5% CO2 humidified incubator.
# LOX human melanoma cells were plated at 1×10^6 cells into 100 mm dishes. After 48 hours, cells were washed three times with phosphate buffered saline (PBS) and were cultured with RPMI-1640 medium containing 0.1% FBS for another 24 hours. After removing the cell culture medium, fresh RPMI-1640 medium containing Compound 106 (1, 10, 100, 1000, or 10,000 nmol/L) was added to each culture dish and incubated for 24 hours (see Table 5). The control received 0.1% DMSO in RPMI-1640 culture medium alone to measure spontaneous secretion of IL-6 and IL-8. Three separate experiments were performed in duplicate to calculate the mean±SEM.
# After a 24 hour incubation with Compound 106 or 0.1% DMSO, 5 mL of cell culture supernatant was collected. Any particulate material was removed by centrifugation. All samples were stored in the −80° C. freezer until analysis. Human IL-6 or IL-8 was determined using an ELISA kit (Human IL-8 ELISA Set, Catalog No. 555244, BD Biosciences, San Diego, Calif. and Human IL-6 ELISA Set, Catalog No. 555220, BD Biosciences, San Diego, Calif.) with the assay procedure provided by the kits. Absorbance was read on a VERSAMAX™ (Molecular Devices, now part of MDS Analytical Technologies, Sunnyvale Calif.).
# After removing the cell culture supernatant, 1.0 mL of trypsin was added to the cells for 3 minutes, and then 4 mL of media containing 10% FBS was added for cell counting. Cells were counted using a hematocytometer (Bright Line Counting Chamber, Hausser Scientific, Horsham, Pa.) with a depth of 0.1 mm. The total number of cells was calculated as follows:
# Total number of cells in 5 mL=C×10^4/mL×5 mL(C: actual cell count in 1 mm^2)
# The level of IL-6 or IL-8 was determined as ng/1×10^6 cells. Inhibition of IL-6 or IL-8 secretion by Compound 106 was expressed as percent of control using the formula below:
# Percent of control=(value of treatment−mean value of blank)/(value of control−mean value of blank)×100
# The software, Graphpad Prism® (ver. 4, San Diego, Calif.) was used for calculation of mean IC50 values.
structure (smiles),measurement,setting,value
CCNc1cc(O)c2c(c1)/C=C/C[C@H](O)[C@H](O)C(=O)/C=C\[C@@H](C)[C@H](C)OC2=O [Compound 106],IL-8 (ng/million cells) Mean,1 nmol/L,128.8 ng/million cells
same,IL-8 (pg/million cells) Experiment 1,1 nmol/L,112318 pg/million cells
same,IL-8 (pg/million cells) Experiment 2,1 nmol/L,213228 pg/million cells
same,IL-8 (pg/million cells) Experiment 3,1 nmol/L,60753 pg/million cells
same,"Protein level of IL-8, Percent (%) of control Experiment 1",1 nmol/L,106.9%
same,"Protein level of IL-8, Percent (%) of control Experiment 2",1 nmol/L,123.9%
same,"Protein level of IL-8, Percent (%) of control Experiment 3",1 nmol/L,163.4%
same,IL-8 (ng/million cells) Mean,10 nmol/L,60.2 ng/million cells
same,IL-8 (pg/million cells) Experiment 1,10 nmol/L,47049 pg/million cells
same,IL-8 (pg/million cells) Experiment 2,10 nmol/L,90632 pg/million cells
same,IL-8 (pg/million cells) Experiment 3,10 nmol/L,42942 pg/million cells
same,"Protein level of IL-8, Percent (%) of control Experiment 1",10 nmol/L,44.8%
same,"Protein level of IL-8, Percent (%) of control Experiment 2",10 nmol/L,52.7%
same,"Protein level of IL-8, Percent (%) of control Experiment 3",10 nmol/L,115.5%
same,IL-8 (ng/million cells) Mean,100 nmol/L,3.1 ng/million cells
same,IL-8 (pg/million cells) Experiment 1,100 nmol/L,3079 pg/million cells
same,IL-8 (pg/million cells) Experiment 2,100 nmol/L,3249 pg/million cells
same,IL-8 (pg/million cells) Experiment 3,100 nmol/L,3101 pg/million cells
same,"Protein level of IL-8, Percent (%) of control Experiment 1",100 nmol/L,2.9%
same,"Protein level of IL-8, Percent (%) of control Experiment 2",100 nmol/L,1.9%
same,"Protein level of IL-8, Percent (%) of control Experiment 3",100 nmol/L,8.3%
same,IL-8 (ng/million cells) Mean,"1,000 nmol/L",2.4 ng/million cells
same,IL-8 (pg/million cells) Experiment 1,"1,000 nmol/L",3390 pg/million cells
same,IL-8 (pg/million cells) Experiment 2,"1,000 nmol/L",2273 pg/million cells
same,IL-8 (pg/million cells) Experiment 3,"1,000 nmol/L",1494 pg/million cells
same,"Protein level of IL-8, Percent (%) of control Experiment 1","1,000 nmol/L",3.2%
same,"Protein level of IL-8, Percent (%) of control Experiment 2","1,000 nmol/L",1.3%
same,"Protein level of IL-8, Percent (%) of control Experiment 3","1,000 nmol/L",4.0%
same,IL-8 (ng/million cells) Mean,"10,000 nmol/L",2.9 ng/million cells
same,IL-8 (pg/million cells) Experiment 1,"10,000 nmol/L",5179 pg/million cells
same,IL-8 (pg/million cells) Experiment 2,"10,000 nmol/L",1384 pg/million cells
same,IL-8 (pg/million cells) Experiment 3,"10,000 nmol/L",2179 pg/million cells
same,"Protein level of IL-8, Percent (%) of control Experiment 1","10,000 nmol/L",4.9%
same,"Protein level of IL-8, Percent (%) of control Experiment 2","10,000 nmol/L",0.8%
same,"Protein level of IL-8, Percent (%) of control Experiment 3","10,000 nmol/L",5.9%
same,activity at 0.001 µM,"Homo sapiens, LOX, 1 nmol/L, read-out: Protein level of IL-8, Mean % of control",131%
same,activity at 0.01 µM,"Homo sapiens, LOX, 10 nmol/L, read-out: Protein level of IL-8, Mean % of control",71%
same,activity at 0.1 µM,"Homo sapiens, LOX, 100 nmol/L, read-out: Protein level of IL-8, Mean % of control",4.4%
same,activity at 1 µM,"Homo sapiens, LOX, 1,000 nmol/L, read-out: Protein level of IL-8, Mean % of control",2.9%
same,activity at 10 µM,"Homo sapiens, LOX, 10,000 nmol/L, read-out: Protein level of IL-8, Mean % of control",3.9%
same,IC50,"Homo sapiens, LOX melanoma cell line, read-out: mean calculated IC50, IL-8 protein level",10.5 nM
